In publication PMC5301048, “Selection and early clinical evaluation of the brain‐penetrant 11β‐hydroxysteroid dehydrogenase type 1 (11β‐HSD1) inhibitor UE2343 (Xanamem™)” (British Journal of Pharmacology, 2017):
In brackets after ≈: the same amount, converted by molar mass. Read-outs that look alike come from different tables or passages of the source.

Tests used:
[1] = Tissue exposure measurements in rats (plasma and brain); type: in vivo; settings: rat
Protocol: The circulating plasma levels and tissue distribution of compounds were determined according to the method described in WO2011135276 (Webster et al., 2011a). Animals were group‐housed, had free access to food and water and were maintained in accordance with UK Home Office regulations. The animal work was conducted under UK Home Office Project Licence no. PPL 60/3915.
Compounds were prepared in 0.9% saline containing 2% DMSO (v^.v^‐1) and 38% PEG400 (v^.v^‐1) and administered to male Sprague Dawley rats by oral gavage such that the final concentration of compound was 10 mg·kg^−1. Rats (n = 3 per time point) were killed by decapitation at 1, 4 and 6 h post dosing, and trunk blood and tissues (liver, adipose and brain) were excised. Blood samples at 0.5 and 2 h post dosing were taken by a tail nick from the 4 and 6 h rats respectively.
Compounds were triple extracted from plasma (prepared from blood by a high speed centrifugation step) and spiked with 1 μg of a standard compound using ethyl acetate. Extracts were dried under nitrogen and re‐suspended in 60% methanol/40% ammonium acetate (5 mM).
A known weight of tissue was homogenized in 3 volumes of Krebs buffer. The compound was triple extracted with ethyl acetate from the supernatant of a low speed spin spiked with […] of a standard compound. Extracts were dried under nitrogen and re‐suspended in 60% methanol/40% ammonium acetate (5 mM).
Samples from plasma and tissue were analysed by TSQ Quantum Discovery Tandem Mass Spectrometer and Surveyor Liquid Chromatogram (Thermo, Hemel‐Hempstead, UK). Then 10 μL of each sample was injected in a mobile phase consisting of 60% methanol/40% ammonium acetate (5 mM) at a flow rate of 0.5 mL·min^−1. The column used was a BDS hypersil C18, 50 × 2.1 mm with a 5 μm particle size.
Each compound was tuned with a spray voltage of 3000 V and a capillary temperature of 300°C, and values for tube lens, CID and product ions were determined. The peak area for each compound and for the internal standard was determined, and the concentration of compound ^. g^‐1 of tissue or mL^‐1 of plasma was calculated by comparison of the peak area ratio to a standard curve.

[2] = Plasma protein binding, rat plasma; type: in vitro ADME; settings: mean ± SD [n]
[3] = Aqueous solubility at pH 7.4; type: physicochemical; settings: aqueous phosphate buffer, thermodynamic from solid, pH 7.4, room temperature, mean ± SD [n]
Protocol: The concentration was quantified by HPLC with reference to a standard calibration curve. The solubility was calculated using the peak areas determined by integration of the peak found at the same retention time as the principal peak in the standard injection.

SMILES: O=C(c1csc(-c2cn[nH]c2)c1)N1C2CCC1CC(O)(c1ncccn1)C2 (stereo not shown) [compound 4]
- Kp ([1]; male, Sprague Dawley, brain (relative to free plasma), oral, 10 mg·kg^−1, rat plasma protein binding taken into account, read-out: brain : plasma free ratio): 0.43
- Kp ([1]; male, Sprague Dawley, brain and plasma, 10 mg·kg^−1 oral gavage, read-out: Brain : plasma ratio): 0.11
- Cmax ([1]; male, Sprague Dawley, plasma, po, 10 mg/kg, 10 mg·kg^−1 oral gavage, mean ± SD): 1540 ± 657 ng/mL
- level in brain as % of the free plasma concentration [1]: 43%
- Brain Cmax ([1]; 10 mg·kg^−1 oral gavage, mean ± SD): 173 ± 80 ng/mL
- Plasma protein binding (% unbound), rat [2]: 26 ± 0 [2] % unbound
- solubility [3]: 200 µg/mL (≈ 524 µM)
